According to ChEMBL document CHEMBL3885881, “DrugMatrix”:

Organism: Rattus norvegicus
Experiment: DrugMatrix - Regimen: Daily Repeat
Format: toxicity, organism-based, Sprague-Dawley
Design: regimen Daily Repeat, gender Male, age 6-8 weeks
Conditions: in vivo, po, route oral GAVAGE, vehicle .5 % CMC; for ABSOLUTE BASOPHIL / ABSOLUTE EOSINOPHIL / ABSOLUTE LYMPHOCYTE / ABSOLUTE MONOCYTE / ABSOLUTE SEGMENTED NEUTROPHIL / BASOPHIL / EOSINOPHIL / ERYTHROCYTE COUNT / HEMATOCRIT / HEMOGLOBIN / LEUKOCYTE COUNT / LYMPHOCYTE / MEAN CORPUSCULAR HEMOGLOBIN / MEAN CORPUSCULAR HEMOGLOBIN CONCENTRATION / MEAN CORPUSCULAR VOLUME / MONOCYTE / NEUTROPHIL / NUCLEATED RED BLOOD CELLS / PLATELET COUNT: tissue Blood; for ALANINE AMINOTRANSFERASE / ALBUMIN / ALKALINE PHOSPHATASE / ASPARTATE AMINOTRANSFERASE / BLOOD UREA NITROGEN / CARBON DIOXIDE / CHLORIDE / CHOLESTEROL / CREATINE PHOSPHOKINASE / CREATININE / GLUCOSE / LACTATE DEHYDROGENASE / LIPASE / PHOSPHORUS / POTASSIUM / SODIUM / TOTAL BILIRUBIN / TOTAL PROTEIN / URIC ACID: tissue Plasma
[1] = 0 mg/kg, 72 h, dose level Control, time 3 day
[2] = 0 mg/kg, 120 h, dose level Control, time 5 day
[3] = 40 mg/kg, 72 h, dose level Low, time 3 day

## C[C@@](Cc1ccc(O)c(O)c1)(NN)C(=O)O.O [CARBIDOPA]
[1]
  ABSOLUTE BASOPHIL: 0 CELLS/uL
  ABSOLUTE EOSINOPHIL: 222.83 CELLS/uL
  ABSOLUTE LYMPHOCYTE: 14453 CELLS/uL
  ABSOLUTE MONOCYTE: 0 CELLS/uL
  ABSOLUTE SEGMENTED NEUTROPHIL: 1490.83 CELLS/uL
  BASOPHIL: 0%
  EOSINOPHIL: 1.33%
  ERYTHROCYTE COUNT: 5.76 x10E6/uL
  HEMATOCRIT: 36.52%
  HEMOGLOBIN: 13.45 G/DL
  LEUKOCYTE COUNT: 16.17 x10E3/uL
  LYMPHOCYTE: 89.33%
  MEAN CORPUSCULAR HEMOGLOBIN: 23.37 pg
  MEAN CORPUSCULAR HEMOGLOBIN CONCENTRATION: 36.85 G/DL
  MEAN CORPUSCULAR VOLUME: 63.47 fL
  MONOCYTE: 0%
  NEUTROPHIL: 9.33%
  NUCLEATED RED BLOOD CELLS: 0 /100WBC
  PLATELET COUNT: 1239.5 x10E3/uL
  ALANINE AMINOTRANSFERASE: 43.83 u/L
  ALBUMIN: 4.27 G/DL
  ALKALINE PHOSPHATASE: 398.83 u/L
  ASPARTATE AMINOTRANSFERASE: 81.17 u/L
  BLOOD UREA NITROGEN: 17.67 mg/dL
  CARBON DIOXIDE: 27.5 mmol/L
  CHLORIDE: 99.17 MEQ/L
  CHOLESTEROL: 74 mg/dL
  CREATINE PHOSPHOKINASE: 331.5 u/L
  CREATININE: 0.2 mg/dL
  GLUCOSE: 171.33 mg/dL
  LACTATE DEHYDROGENASE: 241.67 u/L
  LIPASE: 9.5 u/L
  PHOSPHORUS: 12.25 mg/dL
  POTASSIUM: 6.33 MEQ/L
  SODIUM: 141.28 MEQ/L
  TOTAL BILIRUBIN: 0.15 mg/dL
  TOTAL PROTEIN: 5.98 G/DL
  URIC ACID: 1.63 mg/dL
[2]
  ABSOLUTE BASOPHIL: 0 CELLS/uL
  ABSOLUTE EOSINOPHIL: 148.67 CELLS/uL
  ABSOLUTE LYMPHOCYTE: 16020.5 CELLS/uL
  ABSOLUTE MONOCYTE: 29.17 CELLS/uL
  ABSOLUTE SEGMENTED NEUTROPHIL: 1468.33 CELLS/uL
  BASOPHIL: 0%
  EOSINOPHIL: 1%
  ERYTHROCYTE COUNT: 5.78 x10E6/uL
  HEMATOCRIT: 35.77%
  HEMOGLOBIN: 13.4 G/DL
  LEUKOCYTE COUNT: 17.67 x10E3/uL
  LYMPHOCYTE: 90.5%
  MEAN CORPUSCULAR HEMOGLOBIN: 23.22 pg
  MEAN CORPUSCULAR HEMOGLOBIN CONCENTRATION: 37.47 G/DL
  MEAN CORPUSCULAR VOLUME: 61.92 fL
  MONOCYTE: 0.17%
  NEUTROPHIL: 8.33%
  NUCLEATED RED BLOOD CELLS: 0.17 /100WBC
  PLATELET COUNT: 1255.5 x10E3/uL
  ALANINE AMINOTRANSFERASE: 46.5 u/L
  ALBUMIN: 4.38 G/DL
  ALKALINE PHOSPHATASE: 336 u/L
  ASPARTATE AMINOTRANSFERASE: 76.5 u/L
  BLOOD UREA NITROGEN: 20 mg/dL
  CARBON DIOXIDE: 27.5 mmol/L
  CHLORIDE: 101 MEQ/L
  CHOLESTEROL: 71.33 mg/dL
  CREATINE PHOSPHOKINASE: 231.83 u/L
  CREATININE: 0.37 mg/dL
  GLUCOSE: 168.83 mg/dL
  LACTATE DEHYDROGENASE: 174 u/L
  LIPASE: 8.67 u/L
  PHOSPHORUS: 11.48 mg/dL
  POTASSIUM: 6.82 MEQ/L
  SODIUM: 143.8 MEQ/L
  TOTAL BILIRUBIN: 0.2 mg/dL
  TOTAL PROTEIN: 5.98 G/DL
  URIC ACID: 1.83 mg/dL
[3]
  ABSOLUTE BASOPHIL: 0 CELLS/uL
  ABSOLUTE EOSINOPHIL: 143.67 CELLS/uL
  ABSOLUTE LYMPHOCYTE: 13232.67 CELLS/uL
  ABSOLUTE MONOCYTE: 0 CELLS/uL
  ABSOLUTE SEGMENTED NEUTROPHIL: 1090.33 CELLS/uL
  BASOPHIL: 0%
  EOSINOPHIL: 1%
  ERYTHROCYTE COUNT: 5.57 x10E6/uL
  HEMATOCRIT: 35.7%
  HEMOGLOBIN: 13.3 G/DL
  LEUKOCYTE COUNT: 14.47 x10E3/uL
  LYMPHOCYTE: 91.67%
  MEAN CORPUSCULAR HEMOGLOBIN: 23.87 pg
  MEAN CORPUSCULAR HEMOGLOBIN CONCENTRATION: 37.27 G/DL
  MEAN CORPUSCULAR VOLUME: 64.03 fL
  MONOCYTE: 0%
  NEUTROPHIL: 7.33%
  NUCLEATED RED BLOOD CELLS: 0 /100WBC
  PLATELET COUNT: 1331.33 x10E3/uL
  ALANINE AMINOTRANSFERASE: 40.33 u/L
  ALBUMIN: 4.27 G/DL
  ALKALINE PHOSPHATASE: 388.33 u/L
  ASPARTATE AMINOTRANSFERASE: 77 u/L
  BLOOD UREA NITROGEN: 14 mg/dL
  CARBON DIOXIDE: 29 mmol/L
  CHLORIDE: 100.67 MEQ/L
  CHOLESTEROL: 72.33 mg/dL
  CREATINE PHOSPHOKINASE: 210.67 u/L
  CREATININE: 0.21 mg/dL
  GLUCOSE: 156 mg/dL
  LACTATE DEHYDROGENASE: 151.33 u/L
  LIPASE: 8.33 u/L
  PHOSPHORUS: 12.9 mg/dL
  POTASSIUM: 6.71 MEQ/L
  SODIUM: 144.3 MEQ/L
  TOTAL BILIRUBIN: 0.23 mg/dL
  TOTAL PROTEIN: 5.9 G/DL
  URIC ACID: 1.83 mg/dL
